Earlier results as cited in patent US20020095197A1, “Application of photochemotherapy for the treatment of cardiac arrhythmias” (priority 2000, published 2002).

Tested on: vascular wall (adventitia, media, intima)
Settings: photochemotherapy with Photofrin applied; literature report (Gonschior et al. 1997)

porfimer sodium [Photofrin]
inflammatory cells in vessel wall layers following vascular trauma: presence of inflammatory cells in the adventitia (outermost layers), but not in the media or intima
